Drawing on ChEMBL document CHEMBL1137945, “Design, synthesis, and activity of HDAC inhibitors with a N-formyl hydroxylamine head group” (Bioorg Med Chem Lett, 2004), this text covers IC50 and EC50 for 14 compounds.

The term IC50 denotes the concentration at which inhibition is half-maximal. In general, EC50 refers to the midpoint of the concentration-response curve. Read a low EC50 as a more potent agent.

One assay has as its target Histone deacetylase 2 (Homo sapiens, UniProt Q92769). Description: Inhibition of Histone deacetylase 2 (HDAC2) activity of HeLa nuclear extracts.
The target in a further assay is Histone deacetylase. Kind of assay: Inhibition of Histone deacetylase (HDAC)of HeLa nuclear extracts. In kind it is protein assay, Homo sapiens.
The target of assay [1] is T1, Protein deacetylase HDAC6 (Homo sapiens, UniProt Q9UBN7).
T1 sequence (Q9UBN7 whole entry): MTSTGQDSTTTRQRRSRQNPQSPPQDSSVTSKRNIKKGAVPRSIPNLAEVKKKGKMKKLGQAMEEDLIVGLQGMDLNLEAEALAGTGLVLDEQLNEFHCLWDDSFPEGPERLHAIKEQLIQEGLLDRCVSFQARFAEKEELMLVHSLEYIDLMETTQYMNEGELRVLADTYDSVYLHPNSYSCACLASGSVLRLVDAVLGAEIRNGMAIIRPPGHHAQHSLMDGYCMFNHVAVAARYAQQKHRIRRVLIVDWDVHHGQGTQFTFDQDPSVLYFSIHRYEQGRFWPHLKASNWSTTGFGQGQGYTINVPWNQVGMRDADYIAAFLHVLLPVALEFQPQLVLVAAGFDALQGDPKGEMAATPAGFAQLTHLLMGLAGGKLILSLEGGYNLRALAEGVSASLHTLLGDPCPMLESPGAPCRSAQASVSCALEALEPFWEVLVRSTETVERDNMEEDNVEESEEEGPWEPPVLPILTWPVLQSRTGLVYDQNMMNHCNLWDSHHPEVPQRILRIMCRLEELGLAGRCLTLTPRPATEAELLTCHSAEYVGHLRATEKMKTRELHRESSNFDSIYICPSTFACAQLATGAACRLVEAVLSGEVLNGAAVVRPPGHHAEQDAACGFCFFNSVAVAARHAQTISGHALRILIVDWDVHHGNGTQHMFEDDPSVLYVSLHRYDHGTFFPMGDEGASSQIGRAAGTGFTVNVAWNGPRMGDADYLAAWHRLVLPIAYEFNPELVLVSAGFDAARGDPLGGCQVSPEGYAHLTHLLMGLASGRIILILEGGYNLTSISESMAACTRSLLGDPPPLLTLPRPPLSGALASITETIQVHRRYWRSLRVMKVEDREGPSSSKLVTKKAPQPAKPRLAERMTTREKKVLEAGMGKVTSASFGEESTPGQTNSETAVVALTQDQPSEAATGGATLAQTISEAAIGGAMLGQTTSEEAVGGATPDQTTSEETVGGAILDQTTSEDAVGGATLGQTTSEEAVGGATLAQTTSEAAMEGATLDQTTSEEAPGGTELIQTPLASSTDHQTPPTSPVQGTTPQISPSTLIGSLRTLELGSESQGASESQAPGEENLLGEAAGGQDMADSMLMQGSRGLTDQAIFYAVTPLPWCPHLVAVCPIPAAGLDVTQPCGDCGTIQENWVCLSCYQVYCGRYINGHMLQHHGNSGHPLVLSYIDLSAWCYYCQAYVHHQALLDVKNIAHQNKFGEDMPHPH
Description: Inhibition of Histone deacetylase 6 (HDAC6) of HeLa nuclear extracts

The target in another assay is Histone deacetylase 1 (Homo sapiens, UniProt Q13547).
For the next assay, the target named is T2, Histone deacetylase 8 (Homo sapiens, UniProt Q9BY41).
T2 sequence (Q9BY41 whole entry): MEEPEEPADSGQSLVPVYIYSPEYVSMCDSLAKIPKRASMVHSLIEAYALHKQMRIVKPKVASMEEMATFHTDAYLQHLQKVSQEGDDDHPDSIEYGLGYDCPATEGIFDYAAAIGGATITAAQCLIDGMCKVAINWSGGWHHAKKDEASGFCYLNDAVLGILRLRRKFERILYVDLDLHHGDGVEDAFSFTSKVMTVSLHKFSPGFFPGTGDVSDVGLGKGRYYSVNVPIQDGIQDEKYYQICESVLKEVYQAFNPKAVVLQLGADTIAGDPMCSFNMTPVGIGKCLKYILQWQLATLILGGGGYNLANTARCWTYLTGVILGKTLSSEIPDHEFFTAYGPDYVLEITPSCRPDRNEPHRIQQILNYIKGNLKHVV

Assay [2] deals with bone marrow cells (Homo sapiens). Description: cells.
A further assay relates to Jurkat. Description: Compound was tested for anti-proliferative activity in Jurkat human leukemia cell line. Format: functional, cell-based.
The species entered for the next assay is Homo sapiens. Kind of assay: Compound was tested for anti-proliferative activity in human hepatocytes. Format: functional, organism-based. The note with it: Hepatocyte.
In another assay the test system is U-937. Kind of assay: Compound was tested for anti-proliferative activity in U-937 human leukemia cell line. In kind it is functional, cell-based.
The nature of assay [3]: Activity in histone hyperacetylation assay in cells. Format: functional.

Chain of Histone deacetylase 1 (Q13547 whole entry): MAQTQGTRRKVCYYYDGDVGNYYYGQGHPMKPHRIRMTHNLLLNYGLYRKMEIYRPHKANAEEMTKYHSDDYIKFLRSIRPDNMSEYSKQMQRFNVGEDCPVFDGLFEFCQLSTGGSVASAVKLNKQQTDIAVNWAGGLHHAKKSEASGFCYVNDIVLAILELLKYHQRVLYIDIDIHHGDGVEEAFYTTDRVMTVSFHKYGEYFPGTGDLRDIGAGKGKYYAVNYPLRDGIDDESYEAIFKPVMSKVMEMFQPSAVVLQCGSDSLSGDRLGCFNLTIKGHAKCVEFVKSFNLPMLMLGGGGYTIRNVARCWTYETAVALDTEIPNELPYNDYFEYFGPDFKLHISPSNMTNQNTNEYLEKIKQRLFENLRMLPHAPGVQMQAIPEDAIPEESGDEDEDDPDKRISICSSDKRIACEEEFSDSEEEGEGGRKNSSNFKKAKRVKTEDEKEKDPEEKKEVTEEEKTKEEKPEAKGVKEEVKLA
Chain of Histone deacetylase 2 (Q92769 whole entry): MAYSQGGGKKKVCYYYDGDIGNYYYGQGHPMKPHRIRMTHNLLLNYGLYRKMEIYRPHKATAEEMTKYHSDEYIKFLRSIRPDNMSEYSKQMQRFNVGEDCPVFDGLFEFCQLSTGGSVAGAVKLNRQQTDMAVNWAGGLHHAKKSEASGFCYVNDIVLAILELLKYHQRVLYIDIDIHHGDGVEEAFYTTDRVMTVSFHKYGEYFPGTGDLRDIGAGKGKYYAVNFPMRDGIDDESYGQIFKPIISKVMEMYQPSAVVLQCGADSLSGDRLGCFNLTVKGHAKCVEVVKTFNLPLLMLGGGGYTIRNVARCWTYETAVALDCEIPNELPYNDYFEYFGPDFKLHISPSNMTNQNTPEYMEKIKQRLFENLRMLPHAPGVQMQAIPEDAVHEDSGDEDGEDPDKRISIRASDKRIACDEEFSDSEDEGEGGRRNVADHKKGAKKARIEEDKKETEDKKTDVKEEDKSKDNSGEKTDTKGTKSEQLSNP
Description for Histone deacetylase 1: Inhibition of Histone deacetylase 1 (HDAC1) of HeLa nuclear extracts
Description for Histone deacetylase 8: Inhibition of Histone deacetylase 8 (HDAC8) of HeLa nuclear extracts

Consider `O=CN(O)CCCCCNC(=O)CCc1ccccc1`, for which the concentration for half-maximal inhibition (IC50) was 41 µM at Histone deacetylase 2; greater than 100 µM on Histone deacetylase; 30 µM in assay [1]; 49 µM at Histone deacetylase 1; 9.7 µM against Histone deacetylase 8.
On to `CC(=O)N(O)CCCCCC(=O)Nc1ccccc1`, for which the concentration for half-maximal inhibition (IC50) (against Histone deacetylase 2; on Histone deacetylase; in assay [1]; against Histone deacetylase 8) was greater than 100 µM each time.
For the compound `O=CN(O)CCCCCNC(=O)c1ccccc1`, the half-inhibitory concentration (IC50) is 26 µM on Histone deacetylase 2; greater than 100 µM at Histone deacetylase; 4.3 µM in [1]; 30 µM on Histone deacetylase 1; 22 µM on Histone deacetylase 8.
`O=CN(O)CCCCCCCC(=O)Nc1ccccc1`: the IC50 stood at 7.8 µM at Histone deacetylase 2, 5.5 µM in assay [1] and 2.8 µM on Histone deacetylase 8.
In the case of `O=CN(O)CCCCCC(C(=O)Nc1cnc2ccccc2c1)C(=O)Nc1cnc2ccccc2c1`, the 50% inhibitory concentration (IC50) on Histone deacetylase 2 amounted to 0.2 µM; on Histone deacetylase, 0.97 µM; in assay [1] it was 0.78 µM; against Histone deacetylase 1, 0.16 µM; at Histone deacetylase 8, 0.69 µM. Besides, the EC50 came out at 78 µM in [2]; 11 µM in the assay on Jurkat; 41 µM in the assay filed under Homo sapiens; 40 µM in the assay on U-937; 5.1 µM in assay [3].
For `O=CN(O)CCCCCC(C(=O)Nc1ccc2ncccc2c1)C(=O)Nc1ccc2ncccc2c1`, the IC50 was found to be 0.27 µM against Histone deacetylase 2; 0.75 µM against Histone deacetylase; 0.62 µM in assay [1]; 0.18 µM at Histone deacetylase 1; 0.8 µM against Histone deacetylase 8. Besides, the concentration giving a half-maximal response (EC50) in assay [2] was 130 µM; in the assay on Jurkat, 31 µM; in the assay filed under Homo sapiens, greater than 500 µM; in the assay on U-937, 100 µM; in assay [3], 10 µM.
Consider `O=CN(O)CCCCCC(=O)Nc1ccccc1`, for which the IC50 at Histone deacetylase 2 amounted to 19 µM; in assay [1], 2.8 µM; against Histone deacetylase 8 it was 6.8 µM.
The matching figures for `COC(=O)N(O)CCCCCCC(=O)Nc1ccccc1`: greater than 100 µM, greater than 100 µM and greater than 100 µM.
Regarding `O=CN(O)CCCCCCCC(=O)Nc1cccc2ccccc12`, the IC50 on Histone deacetylase 2 was determined as 5.9 µM; at Histone deacetylase, 50 µM; in [1], 3.1 µM; against Histone deacetylase 1, 5.7 µM; against Histone deacetylase 8, 0.65 µM.
In the case of `O=CN(O)CCCCCNC(=O)c1ccc2ccccc2c1`, the concentration for half-maximal inhibition (IC50) on Histone deacetylase 2 came to 1.4 µM; against Histone deacetylase, 4.4 µM; in assay [1], 0.6 µM; on Histone deacetylase 1 it was 1.3 µM; against Histone deacetylase 8, 7 µM.
On to `O=CN(O)CCCCCCCC(=O)Nc1ccc2ccccc2c1`, for which the IC50 against Histone deacetylase 2 is 0.89 µM; on Histone deacetylase, 4 µM; in [1], 0.91 µM; at Histone deacetylase 1, 0.81 µM; at Histone deacetylase 8, 0.78 µM.
Turning to `O=CN(O)CCCCCCC(=O)Nc1ccccc1`, the IC50 against Histone deacetylase 2 came out at 11 µM; at Histone deacetylase 8 it was 4 µM.
As for `CC(=O)N(O)CCCCCCCC(=O)Nc1ccccc1`, the concentration for half-maximal inhibition (IC50) (at Histone deacetylase 2; in [1]; at Histone deacetylase 8) was greater than 100 µM each time.
Regarding `O=C(CCCCCCC(=O)Nc1ccccc1)NO` [VORINOSTAT], the EC50 in the assay with Jurkat turned out to be 2.3 µM; in the assay on U-937, 33 µM.
